According to the NIST ThermoML archive (doi:10.1016/j.jct.2012.08.010):

Experiment: xn = mol fraction of the nth substance listed
Conditions: 101 kPa, Liquid, Vibrating tube method

C=C[Si]1(C)O[Si](C)(C=C)O[Si](C)(C=C)O[Si](C)(C=C)O1 (stereo not given) [2,4,6,8-tetramethyl-2,4,6,8-tetravinylcycloterasiloxane] + Cc1cccc(C)c1
mass density [kg/m3]
Conditions | 288.15 K | 298.15 K | 308.15 K | 318.15 K | 328.15 K
x1 = 0.05 | 885.05 | 876.18 | 867.36 | 858.49 | 849.53
x1 = 0.1062 | 900.56 | 891.58 | 882.48 | 873.4 | 864.24
x1 = 0.1505 | 910.91 | 901.78 | 892.55 | 883.33 | 874.04
x1 = 0.2005 | 921.17 | 911.87 | 902.51 | 893.18 | 883.77
x1 = 0.2501 | 930.07 | 920.57 | 911.13 | 901.66 | 892.14
x1 = 0.3023 | 938.25 | 928.62 | 919.04 | 909.46 | 899.85
x1 = 0.3442 | 944.08 | 934.35 | 924.72 | 915.05 | 905.37
x1 = 0.3985 | 950.83 | 941.02 | 931.29 | 921.55 | 911.8
x1 = 0.4491 | 956.41 | 946.51 | 936.74 | 926.91 | 917.12
x1 = 0.499 | 961.37 | 951.41 | 941.59 | 931.69 | 921.85
x1 = 0.5495 | 965.9 | 955.89 | 946 | 936.07 | 926.17
x1 = 0.5981 | 969.84 | 959.8 | 949.86 | 939.92 | 929.94
x1 = 0.6498 | 973.72 | 963.58 | 953.57 | 943.62 | 933.58
x1 = 0.6946 | 976.79 | 966.61 | 956.57 | 946.59 | 936.5
x1 = 0.7483 | 980.15 | 969.99 | 959.9 | 949.87 | 939.74
x1 = 0.7983 | 983.05 | 972.9 | 962.78 | 952.69 | 942.58
x1 = 0.8489 | 985.74 | 975.61 | 965.47 | 955.35 | 945.21
x1 = 0.9463 | 990.44 | 980.3 | 970.11 | 959.94 | 949.75
x1 = 1 | 992.74 | 982.54 | 972.34 | 962.14 | 951.94
